The text below walks through data of ChEMBL document CHEMBL4813977, “Discovery of potent colony-stimulating factor 1 receptor inhibitors by replacement of hinge-binder moieties” (Eur J Med Chem, 2021).

The source made the active and inactive calls. The calls are words filed in the database; no cut-off is given here.

Test [1] addresses Mast/stem cell growth factor receptor Kit (Homo sapiens) (UniProt P10721). Particulars: dose 100.0 nM.
Description: Inhibition of human c-KIT at 100 nM using poly[Glu:Tyr] (4:1) as substrate in presence of [gamma-33P]-ATP by radiometric assay relative to control
Test [2] has the same target. The following applies: dose 10.0 nM.
Description: Inhibition of human c-KIT at 10 nM using poly[Glu:Tyr] (4:1) as substrate in presence of [gamma-33P]-ATP by radiometric assay relative to control
For test [3], the target named is T1, Macrophage colony-stimulating factor 1 receptor (Mus musculus) (UniProt P09581).
T1 sequence (whole entry): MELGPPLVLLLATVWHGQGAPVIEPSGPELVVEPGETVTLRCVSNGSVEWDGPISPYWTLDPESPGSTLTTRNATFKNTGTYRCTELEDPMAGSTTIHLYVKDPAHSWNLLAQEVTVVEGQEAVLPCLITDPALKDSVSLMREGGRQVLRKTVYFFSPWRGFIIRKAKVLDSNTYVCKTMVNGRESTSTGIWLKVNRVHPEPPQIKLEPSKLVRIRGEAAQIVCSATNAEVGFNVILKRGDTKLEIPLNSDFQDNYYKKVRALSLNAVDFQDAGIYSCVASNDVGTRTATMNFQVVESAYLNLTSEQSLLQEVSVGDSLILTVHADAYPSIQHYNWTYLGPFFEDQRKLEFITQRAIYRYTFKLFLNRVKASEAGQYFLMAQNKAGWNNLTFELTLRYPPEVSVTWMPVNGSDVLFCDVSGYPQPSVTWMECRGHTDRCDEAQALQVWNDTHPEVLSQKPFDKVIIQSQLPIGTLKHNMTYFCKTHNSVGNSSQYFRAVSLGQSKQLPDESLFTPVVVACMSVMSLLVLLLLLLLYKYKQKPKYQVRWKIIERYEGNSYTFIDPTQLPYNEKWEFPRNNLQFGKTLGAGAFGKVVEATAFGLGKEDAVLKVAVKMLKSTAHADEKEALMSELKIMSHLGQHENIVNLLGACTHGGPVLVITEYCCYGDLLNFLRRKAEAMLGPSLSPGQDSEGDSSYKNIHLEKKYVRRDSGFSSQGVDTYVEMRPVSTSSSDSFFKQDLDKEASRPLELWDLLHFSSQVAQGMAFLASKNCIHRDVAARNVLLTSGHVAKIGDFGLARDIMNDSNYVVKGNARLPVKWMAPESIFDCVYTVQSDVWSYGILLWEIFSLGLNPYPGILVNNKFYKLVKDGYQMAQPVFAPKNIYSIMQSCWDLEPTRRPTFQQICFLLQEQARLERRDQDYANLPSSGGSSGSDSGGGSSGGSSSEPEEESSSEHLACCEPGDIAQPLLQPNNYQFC
Kind of test: Inhibition of CSF1R phosphorylation in mouse RAW 264.7 cells at 10 to 100 nM preincubated for 5 hrs followed by CSF stimulation for 10 mins by Western blot analysis. The test is classed as cell-based. Particulars: RAW264.7, dose 10-100 nM, time 310.0 min. In general terms: Immunoblotting shows a protein as a band on a membrane.

For test [4], the target named is Receptor-type tyrosine-protein kinase FLT3 (Homo sapiens) (UniProt P36888). Particulars: dose 100.0 nM.
Test [5] has the same target. The following applies: dose 10.0 nM.
Test [6] addresses Macrophage colony-stimulating factor 1 receptor (Homo sapiens) (UniProt P07333). The following applies: dose 100.0 nM.
Description: Inhibition of human CSF1R at 100 nM using poly[Glu:Tyr] (4:1) as substrate in presence of [gamma-33P]-ATP by radiometric assay relative to control
Test [7] shares this target. The following applies: dose 10.0 nM.
Description: Inhibition of human CSF1R at 10 nM using poly[Glu:Tyr] (4:1) as substrate in presence of [gamma-33P]-ATP by radiometric assay relative to control

Sequence of Receptor-type tyrosine-protein kinase FLT3 (Homo sapiens) (P36888 whole entry): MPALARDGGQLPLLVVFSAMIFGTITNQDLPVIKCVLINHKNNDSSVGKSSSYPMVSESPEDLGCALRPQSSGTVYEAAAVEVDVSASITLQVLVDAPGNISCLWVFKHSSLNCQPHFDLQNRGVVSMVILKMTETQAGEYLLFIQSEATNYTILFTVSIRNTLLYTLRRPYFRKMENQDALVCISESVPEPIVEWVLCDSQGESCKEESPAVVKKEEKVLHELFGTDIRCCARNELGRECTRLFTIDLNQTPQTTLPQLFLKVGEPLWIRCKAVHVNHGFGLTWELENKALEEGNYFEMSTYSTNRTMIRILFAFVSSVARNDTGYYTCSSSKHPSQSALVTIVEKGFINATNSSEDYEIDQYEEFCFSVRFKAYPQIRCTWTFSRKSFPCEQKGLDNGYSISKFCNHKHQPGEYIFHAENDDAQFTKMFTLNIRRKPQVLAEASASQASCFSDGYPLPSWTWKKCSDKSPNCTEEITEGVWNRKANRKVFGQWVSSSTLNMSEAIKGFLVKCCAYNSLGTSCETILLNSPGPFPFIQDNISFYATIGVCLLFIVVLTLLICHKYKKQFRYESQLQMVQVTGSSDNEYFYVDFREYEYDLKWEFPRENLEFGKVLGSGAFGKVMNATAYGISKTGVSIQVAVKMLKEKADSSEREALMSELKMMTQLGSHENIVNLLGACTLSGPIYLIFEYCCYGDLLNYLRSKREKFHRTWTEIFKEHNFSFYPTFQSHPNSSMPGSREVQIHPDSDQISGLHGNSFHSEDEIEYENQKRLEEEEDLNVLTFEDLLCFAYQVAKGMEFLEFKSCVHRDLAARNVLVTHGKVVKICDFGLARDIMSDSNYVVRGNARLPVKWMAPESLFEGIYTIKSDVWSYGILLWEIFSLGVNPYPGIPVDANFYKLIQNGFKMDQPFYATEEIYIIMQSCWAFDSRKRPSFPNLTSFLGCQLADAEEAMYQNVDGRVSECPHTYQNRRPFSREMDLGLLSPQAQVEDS
Sequence of Macrophage colony-stimulating factor 1 receptor (Homo sapiens) (P07333 whole entry): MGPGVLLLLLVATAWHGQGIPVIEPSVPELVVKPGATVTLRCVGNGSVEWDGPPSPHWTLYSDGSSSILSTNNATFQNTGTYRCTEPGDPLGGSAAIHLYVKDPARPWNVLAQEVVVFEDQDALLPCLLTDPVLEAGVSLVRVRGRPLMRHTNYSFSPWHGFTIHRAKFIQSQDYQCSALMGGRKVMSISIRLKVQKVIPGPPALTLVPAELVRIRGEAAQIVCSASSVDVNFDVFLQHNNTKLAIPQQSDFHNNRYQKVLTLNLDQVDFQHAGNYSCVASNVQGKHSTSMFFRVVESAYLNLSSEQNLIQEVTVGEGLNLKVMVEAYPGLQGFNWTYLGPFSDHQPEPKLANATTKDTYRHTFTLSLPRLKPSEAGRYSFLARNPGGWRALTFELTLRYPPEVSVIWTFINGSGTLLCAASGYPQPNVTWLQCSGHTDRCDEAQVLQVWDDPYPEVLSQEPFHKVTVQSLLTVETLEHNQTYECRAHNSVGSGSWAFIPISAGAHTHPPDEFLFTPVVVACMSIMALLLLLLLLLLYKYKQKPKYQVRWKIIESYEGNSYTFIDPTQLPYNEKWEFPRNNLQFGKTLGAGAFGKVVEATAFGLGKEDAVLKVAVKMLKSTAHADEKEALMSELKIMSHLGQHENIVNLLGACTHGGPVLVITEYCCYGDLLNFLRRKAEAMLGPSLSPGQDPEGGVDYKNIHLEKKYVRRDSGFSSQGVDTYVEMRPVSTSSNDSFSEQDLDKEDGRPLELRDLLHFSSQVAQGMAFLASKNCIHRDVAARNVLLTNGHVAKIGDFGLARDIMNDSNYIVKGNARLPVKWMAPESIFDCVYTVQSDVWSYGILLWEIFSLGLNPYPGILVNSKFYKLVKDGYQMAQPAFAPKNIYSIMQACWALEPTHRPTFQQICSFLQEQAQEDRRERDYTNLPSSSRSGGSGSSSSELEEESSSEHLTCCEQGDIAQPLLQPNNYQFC
Sequence of Mast/stem cell growth factor receptor Kit (Homo sapiens) (P10721 whole entry): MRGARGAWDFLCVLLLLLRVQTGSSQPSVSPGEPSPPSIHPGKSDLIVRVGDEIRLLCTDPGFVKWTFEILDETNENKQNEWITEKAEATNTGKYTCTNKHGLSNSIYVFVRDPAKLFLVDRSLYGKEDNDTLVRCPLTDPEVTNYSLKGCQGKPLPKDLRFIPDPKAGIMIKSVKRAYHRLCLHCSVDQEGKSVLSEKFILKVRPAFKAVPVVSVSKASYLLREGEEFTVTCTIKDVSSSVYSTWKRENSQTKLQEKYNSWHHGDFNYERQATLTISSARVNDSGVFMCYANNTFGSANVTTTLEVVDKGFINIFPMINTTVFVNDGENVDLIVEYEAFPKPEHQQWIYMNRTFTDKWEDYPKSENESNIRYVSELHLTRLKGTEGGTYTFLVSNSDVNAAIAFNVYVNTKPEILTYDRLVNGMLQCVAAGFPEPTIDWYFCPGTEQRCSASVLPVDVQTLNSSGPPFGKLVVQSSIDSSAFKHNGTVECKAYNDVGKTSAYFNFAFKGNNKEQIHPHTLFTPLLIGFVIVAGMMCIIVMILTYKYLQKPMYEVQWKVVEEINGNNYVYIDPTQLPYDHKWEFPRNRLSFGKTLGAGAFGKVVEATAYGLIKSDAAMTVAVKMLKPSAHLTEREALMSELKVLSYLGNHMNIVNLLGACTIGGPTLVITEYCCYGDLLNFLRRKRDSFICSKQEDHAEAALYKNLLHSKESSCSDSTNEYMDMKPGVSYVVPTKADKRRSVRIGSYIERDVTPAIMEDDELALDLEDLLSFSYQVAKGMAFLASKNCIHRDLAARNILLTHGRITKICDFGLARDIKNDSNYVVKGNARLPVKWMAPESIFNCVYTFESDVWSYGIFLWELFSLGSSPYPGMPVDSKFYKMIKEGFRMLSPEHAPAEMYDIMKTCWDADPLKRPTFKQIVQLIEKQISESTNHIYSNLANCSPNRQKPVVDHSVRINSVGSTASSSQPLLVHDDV

The inhibition is the share of the control response that was lost under treatment. In the case of `Cc1ccc(NCc2ccc(C(F)(F)F)nc2)cc1NC(=O)c1cnn2ccccc12`, the values for the inhibition in test [1] and in test [2] were 45% and 17%, respectively.
`Cc1cn(-c2cc(NC(=O)c3ccc(C)c(NC(=O)c4cnc5cccnn45)c3)cc(C(F)(F)F)c2)cn1`: the inhibition was determined as 50% in test [1] and 7% in test [2].
With `CCN1CCN(Cc2ccc(C(=O)Nc3ccc(C)c(NC(=O)c4cnc5ncccn45)c3)cc2C(F)(F)F)CC1`, the inhibition stood at 49% in test [1] and 10% in test [2].
Consider `Cc1ccc(NC(=O)c2ccc(C(F)(F)F)nc2)cc1NC(=O)c1cnn2ccccc12`, for which the results for the inhibition in test [1] and in test [2] were 53% and 30%, respectively. For the same compound, in test [3], the inhibition result is “Active”.
Consider `CCN1CCN(Cc2ccc(C(=O)Nc3ccc(C)c(NC(=O)c4c[nH]cn4)c3)cc2C(F)(F)F)CC1`, for which the results for the inhibition in test [1] and in test [2] were 89% and 41%, respectively.
`FC(F)(F)c1ccc(CNc2ccc(Cc3c[nH]c4ncc(Cl)cc34)cn2)cn1`: the inhibition stood at 51% in test [1], 11% in test [4], 1% in test [5] and 13% in test [2].
Take `Cc1ccc(NCc2ccc(C(F)(F)F)nc2)cc1NC(=O)c1cnc2ccccn12`: the inhibition was found to be 56% in test [1] and 14% in test [2].
For the compound `CCN1CCN(Cc2ccc(C(=O)Nc3ccc(C)c(NC(=O)c4ccn(C)n4)c3)cc2C(F)(F)F)CC1`, the inhibition was 54% in test [1] and 14% in test [2].
As for `Cc1ccc(NCc2ccc(C(F)(F)F)nc2)cc1NC(=O)c1cnc2cccnn12`, the inhibition in test [1] is 25%; in test [2], 6%.
With `CCN1CCN(Cc2ccc(C(=O)Nc3ccc(C)c(NC(=O)c4n[nH]c5ccccc45)c3)cc2C(F)(F)F)CC1`, the inhibition in test [1] was determined as 89%; in test [2], 43%.
Consider `CCN1CCN(Cc2ccc(C(=O)Nc3ccc(C)c(NCc4cnc5ccc(OC)nn45)c3)cc2C(F)(F)F)CC1`, for which the values for the inhibition in test [1] and in test [2] were 63% and 25%, respectively.
Take `CCN1CCN(Cc2ccc(C(=O)Nc3ccc(C)c(NC(=O)c4n[nH]c5ncccc45)c3)cc2C(F)(F)F)CC1`: the inhibition in test [1] was found to be 98%; in test [2], 96%.
For `CCN1CCN(Cc2ccc(C(=O)Nc3ccc(C)c(NC(=O)c4cnc5ccccn45)c3)cc2C(F)(F)F)CC1`, in that order: 70% and 30%.
Regarding `CCN1CCN(Cc2ccc(C(=O)Nc3ccc(C)c(NCc4cnc5cccnn45)c3)cc2C(F)(F)F)CC1`, the inhibition was determined as 49% in test [1] and 22% in test [2].
Consider `CCN1CCN(Cc2ccc(C(=O)Nc3ccc(C)c(NC(=O)c4cnn5ccccc45)c3)cc2C(F)(F)F)CC1`, for which the values for the inhibition in test [1] and in test [2] were 73% and 27%, respectively.
Take `CNC(=O)c1cc(Oc2ccc3nc(N[C@H]4CCCC[C@H]4O)sc3c2)ccn1`: the inhibition worked out at 2% in test [1]; 94% in test [6]; 76% in test [7]; 20% in test [4]; 19% in test [5]; 2% in test [2].
As for `CCN1CCN(Cc2ccc(NC(=O)c3ccc(C)c(NC(=O)c4cnc5cccnn45)c3)cc2C(F)(F)F)CC1`, the inhibition in test [1] was 98%; in test [2], 96%.
As for `CCN1CCN(Cc2ccc(C(=O)Nc3ccc(C)c(NC(=O)c4cnnc5ccccc45)c3)cc2C(F)(F)F)CC1`, the figures for the inhibition in test [1] and in test [2] were 40% and 10%, respectively.
As for `COc1ccc(COc2ccc(Cc3cnc(N)nc3N)cc2OC)cc1`, the inhibition in test [1] was 8%; in test [4], 11%; in test [5], 4%; in test [2], 4%.
For `CCN1CCN(Cc2ccc(C(=O)Nc3ccc(C)c(NC(=O)c4cnc5cccnn45)c3)cc2C(F)(F)F)CC1`, the inhibition worked out at 64% in test [1] and 27% in test [2].
For `CCN1CCN(Cc2ccc(C(=O)Nc3ccc(C)c(NC(=O)c4ncc[nH]4)c3)cc2C(F)(F)F)CC1`, the figures for the inhibition in test [1] and in test [2] were 81% and 31%, respectively.
Regarding `Cc1cn(-c2cc(NC(=O)c3ccc(C)c(NC(=O)c4cnc5ccccn45)c3)cc(C(F)(F)F)c2)cn1`, the results for the inhibition in test [1] and in test [2] were 33% and 0%, respectively.
`Cc1ccc(NC(=O)c2ccc(C(F)(F)F)nc2)cc1NC(=O)c1cnc2cccnn12`: the figures for the inhibition in test [1] and in test [2] were 32% and 4%, respectively.
The matching figures for `CCN1CCN(Cc2ccc(C(=O)Nc3ccc(C)c(NC(=O)c4cc[nH]n4)c3)cc2C(F)(F)F)CC1`: 17% and 0%.
On to `Cc1cn(-c2cc(NC(=O)c3ccc(C)c(Nc4nccc(-c5cccnc5)n4)c3)cc(C(F)(F)F)c2)cn1`, for which the inhibition in test [1] came out at 33%; in test [7], 14%; in test [4] it was 4%; in test [5] it was 0%; in test [2], 2%.
